{
  "source": "patent US20240000769A1",
  "about": "“AMORPHOUS SOLID DISPERSIONS” (UCB Biopharma SRL, priority 2020, published 2024)",
  "key": {"[1]": {"test": "Dynamic dissolution profile, USP Apparatus 2, simulated gastric media then FaSSIF-V2", "assay_type": "physicochemical", "details": "37° C., 30 min 0.1N HCl (1 mg/mL) then 180 min FaSSIF-V2 (0.5 mg/mL)", "description": "The dissolution profile was determined in a USP Apparatus 2 type (Distek 2100 C Dissolution Apparatus) at 37° C. The dynamic dissolution test includes first a 30 minutes dissolution in simulated gastric media (0.1N HCl) to achieve a concentration equivalent to a concentration of compound of formula (I) of 1 mg/mL, followed by a 180 minutes dissolution in FaSSIF-V2 to achieve a concentration equivalent to a concentration of compound of formula (I) of 0.5 mg/mL.\nThen, 50 mL of simulated gastric media (0.1N HCl) was added to the vessel and the paddle speed was fixed at 100 rpm. After 30 minutes, an equivalent volume (50 mL) of fasted state biorelevant media was added to the vessel to obtain the composition of FaSSIF-V2. Dissolution was carried out in triplicate (n=3). At each timepoint, the suspension was filtered through a 0.45-μm ultra free filter (Merck Millipore) and the content of compound of formula (I) was determined by HPLC. The filtrate was then diluted with a suitable organic solvent."}, "[2]": {"test": "Shake flask solubility (24 h) in buffer/biorelevant media", "assay_type": "physicochemical", "details": "thermodynamic from solid, n=3, read-out: Solubility Measurements (24 h)", "experimental": "The respective solubility of compounds of formula (Ia) and ASD1 was determined in different media while using the shake flask method. An excess of solid (equivalent to a concentration of compound of formula (I) of 5 mg/mL) was suspended in 5 mL of buffer/biorelevant media as specifically described in Table 4 and incubated in a sealed glass vial (10 mL) for 24 h at both RT and 37° C. in a climatic chamber equipped with a rotary mixer. The 24h time point was assumed to have reached solubility, at which time the suspension was filtered through a 0.45-μm ultra free filter (Merck Millipore) and the drug content was determined by HPLC. The solubility of compound (Ia) and ASD1 was determined in triplicate (n=3). Where required to prevent drug precipitation, the filtrate was diluted with a suitable organic solvent. […] These media are respectively a phosphate buffer, FasSGF, FASSIF-V2 and FeSSIF-V2. FasSG is fasted condition gastric fluid. FasSGF is prepared at pH 1.6 and contains 0.08 mM Taurocholate, 0.02 mM phospholipids, 34 mM sodium and 59 mM chloride. FaSSIF-V2 and FeSSIF-V2 are Fasted and Fed State Biorelevant Media, respectively. FaSSIF-V2 is prepared at pH 6.5 and contains 3 mM Taurocholate, 0.2 mM Phospholipids, 106 mM Sodium, 69 mM Chloride and 19 mM Maleic acid. FeSSIF-V2 is prepared at pH 5.8 and contains 10 mM Taurocholate, 2 mM Phospholipids, 0.8 mM Oleate, 5 mM Glycerol monoleate, 218 mM Sodium, 125 mM Chloride and 55 mM Maleic acid."}},
  "note": "Read-outs that look alike come from different tables or passages of the source.",
  "data": [
    {"compound": "C[C@H]1c2cccc(C(C)(C)O)c2C[C@H](CO)N1C(=O)Cc1c(Cl)ccc2c1c(Cl)nn2C", "note": "[Compound (Ia), 2-(3,5-dichloro-1-methyl-indazol-4-yl)-1-[(1S,3R)-3-(hydroxymethyl)-5-(1-hydroxy-1-methyl-ethyl)-1-methyl-3,4-dihydro-1H-isoquinolin-2-yl]ethanone]", "values": [
      {"measurement": "dissolution profile over time", "setting": "[1]", "value": "drops in gastric media to very low levels"},
      {"measurement": "solubility at 24 h", "setting": "[2]; aqueous buffer, Phosphate buffer (50 mM), pH 5.8, RT", "value": "< 1", "unit": "µg/mL"},
      {"measurement": "solubility at 24 h", "setting": "[2]; aqueous buffer, Phosphate buffer (50 mM), pH 6.5, RT", "value": "< 1", "unit": "µg/mL"},
      {"measurement": "solubility at 24 h", "setting": "[2]; fassgf or other biorelevant, FasSGF, pH 1.6, 37° C.", "value": "< 1", "unit": "µg/mL"},
      {"measurement": "solubility at 24 h", "setting": "[2]; FaSSIF-V2, pH 6.5, 37° C.", "value": "~1.5", "unit": "µg/mL"},
      {"measurement": "solubility at 24 h", "setting": "[2]; FeSSIF-V2, pH 5.8, 37° C.", "value": "~4", "unit": "µg/mL"}
    ]}
  ]
}
